Experiment: UV absorbance of sunscreen compositions (FIG. 9)
Type: physicochemical
Excerpt: FIG. 9 depicts the UV absorbance of two specific suncreen compositions.
Thus, to adequately protect human skin from the UV-induced enzymes that degrade the collagen matrix, and which inhibit collagen biosynthesis, a sunscreen formulation must block both radiation of less then 325 nm and that between about 360 nm and 400 nm. In our prior application Ser. No. 09/089,914, we proposed a sunscreen comprising a UVB blocker such as PARSOL MCX and a UVA blocker such as PARSOL 1789. Other UVB blockers known in the art, and in light of the information provided herein, are also suitable. However, various UVA blockers, including PARSOL 1789 and various others such as TINOSORB brand blockers (available from Ciba, Basel, Switzerland) are relatively broadband blockers and while blocking some of the UVA radiation in the >360-400 nm range, are not optimized for that region. […] As noted above, these wavelengths are greater than the 360 nm the industry desires to block with its compounds, because it is generally believed that a broad band absorber will provide the desired blocking effects. To the contrary, we have shown that it is sufficient to block narrow bands of UV radiation, namely 295-325 nm in the UVB, more preferably 305-325 nm, and those wavelengths above 360 nm in the UVA, and that blocking these wavelengths achieves the desired prevention of UV-induced […] of MMPs in human skin.

SMILES: COc1ccc(C(=O)CC(=O)c2ccc(C(C)(C)C)cc2)cc1 [PARSOL 1789]
- UV absorbance (UVA1 area of 340-360 nm): appears adequate
- UV absorbance (area of 390-400 nm): almost no absorbance
- UV absorbance (at 370 nm): falls off
- UV absorbance (to 380 nm): falls off dramatically

— US20060269491A1, “UVA (> 360-400) and UVB (300-325) specific sunscreens” (priority 2000, published 2006)
